The values below come from PMC5933747 (PLoS ONE, 2018).

The term IC50 denotes the concentration at which inhibition is half-maximal.

Like-named read-outs stand apart in the source and are kept apart here.

Assay type in all cases: cell-based
One data set deals with human NaV1.5 (Homo sapiens, UniProt Q14524). Kind of data set: IonWorks Quattro (IWQ) electrophysiology, human NaV1.5. (In patch-clamp work, channel activity is measured electrically.)
For the next data set, the target named is human NaV1.7 (Homo sapiens, UniProt Q15858). Put plainly: IonWorks Quattro (IWQ) electrophysiology, human NaV1.7.
The target in the next data set is human NaV1.4 (Homo sapiens, UniProt P35499). Kind of data set: IonWorks Quattro (IWQ) electrophysiology, human NaV1.4.
Where [1] appears, read: read-out: Ala mutant IWQ IC50 NaV1.5.
The mark [2] stands for this setting: read-out: Ala mutant IWQ IC50 NaV1.7.
[3] abbreviates: read-out: Ala mutant IWQ IC50 NaV1.4.
The mark [4] stands for this setting: read-out: Glu mutant IWQ IC50 NaV1.5.
Where [5] appears, read: read-out: Glu mutant IWQ IC50 NaV1.7.
The mark [6] stands for this setting: read-out: Glu mutant IWQ IC50 NaV1.4.

human NaV1.7, sequence (Q15858 whole entry): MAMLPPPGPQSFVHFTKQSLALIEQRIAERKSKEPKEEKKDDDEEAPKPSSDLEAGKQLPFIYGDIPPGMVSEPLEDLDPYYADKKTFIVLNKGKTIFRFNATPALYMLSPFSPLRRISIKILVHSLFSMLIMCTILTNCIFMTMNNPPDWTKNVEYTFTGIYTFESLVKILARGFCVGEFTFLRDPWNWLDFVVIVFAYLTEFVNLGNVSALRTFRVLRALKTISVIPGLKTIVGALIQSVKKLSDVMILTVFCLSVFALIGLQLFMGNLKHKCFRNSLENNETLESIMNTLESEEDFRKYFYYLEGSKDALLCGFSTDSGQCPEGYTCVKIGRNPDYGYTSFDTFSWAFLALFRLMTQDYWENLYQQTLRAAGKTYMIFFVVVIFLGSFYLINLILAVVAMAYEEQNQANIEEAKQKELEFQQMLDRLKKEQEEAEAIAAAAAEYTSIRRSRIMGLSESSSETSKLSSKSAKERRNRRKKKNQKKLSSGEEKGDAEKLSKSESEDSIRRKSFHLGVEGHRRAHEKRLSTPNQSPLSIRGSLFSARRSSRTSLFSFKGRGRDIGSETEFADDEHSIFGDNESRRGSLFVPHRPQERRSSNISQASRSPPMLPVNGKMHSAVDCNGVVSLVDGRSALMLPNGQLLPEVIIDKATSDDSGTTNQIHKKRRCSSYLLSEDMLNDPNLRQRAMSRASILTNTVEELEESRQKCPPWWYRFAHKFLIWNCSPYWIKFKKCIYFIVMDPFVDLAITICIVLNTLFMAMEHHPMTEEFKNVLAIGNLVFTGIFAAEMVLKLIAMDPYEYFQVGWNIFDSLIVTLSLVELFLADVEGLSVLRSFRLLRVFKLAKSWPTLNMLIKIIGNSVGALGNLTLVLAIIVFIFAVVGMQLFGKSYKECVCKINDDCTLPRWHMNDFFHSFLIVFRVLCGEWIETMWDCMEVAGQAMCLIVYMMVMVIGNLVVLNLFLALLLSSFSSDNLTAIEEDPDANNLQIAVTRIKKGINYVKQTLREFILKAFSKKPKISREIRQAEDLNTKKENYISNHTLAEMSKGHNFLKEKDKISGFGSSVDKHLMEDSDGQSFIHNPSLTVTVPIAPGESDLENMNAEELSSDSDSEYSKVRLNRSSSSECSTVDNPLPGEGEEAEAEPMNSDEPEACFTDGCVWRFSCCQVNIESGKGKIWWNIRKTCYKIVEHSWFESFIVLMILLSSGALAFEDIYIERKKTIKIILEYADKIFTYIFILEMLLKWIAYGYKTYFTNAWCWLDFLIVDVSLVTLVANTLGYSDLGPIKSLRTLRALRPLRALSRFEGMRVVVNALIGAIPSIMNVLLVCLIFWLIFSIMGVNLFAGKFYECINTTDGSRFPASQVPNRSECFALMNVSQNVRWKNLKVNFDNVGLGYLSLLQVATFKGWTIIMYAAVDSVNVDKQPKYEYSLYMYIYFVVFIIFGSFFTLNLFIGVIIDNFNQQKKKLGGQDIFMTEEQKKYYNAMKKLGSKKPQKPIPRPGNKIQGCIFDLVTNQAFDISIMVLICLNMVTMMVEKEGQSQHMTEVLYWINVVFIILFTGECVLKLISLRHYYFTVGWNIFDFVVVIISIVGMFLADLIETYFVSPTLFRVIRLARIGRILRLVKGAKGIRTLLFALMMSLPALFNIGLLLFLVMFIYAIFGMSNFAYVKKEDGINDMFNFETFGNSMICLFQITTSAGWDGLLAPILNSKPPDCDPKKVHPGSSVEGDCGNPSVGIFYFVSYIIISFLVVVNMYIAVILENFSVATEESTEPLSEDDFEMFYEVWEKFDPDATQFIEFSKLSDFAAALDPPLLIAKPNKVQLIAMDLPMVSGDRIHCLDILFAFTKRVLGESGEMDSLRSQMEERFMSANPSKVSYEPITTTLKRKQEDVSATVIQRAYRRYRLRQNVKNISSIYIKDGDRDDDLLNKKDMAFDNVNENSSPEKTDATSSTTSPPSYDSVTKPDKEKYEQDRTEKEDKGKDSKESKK
human NaV1.5, sequence (Q14524 whole entry): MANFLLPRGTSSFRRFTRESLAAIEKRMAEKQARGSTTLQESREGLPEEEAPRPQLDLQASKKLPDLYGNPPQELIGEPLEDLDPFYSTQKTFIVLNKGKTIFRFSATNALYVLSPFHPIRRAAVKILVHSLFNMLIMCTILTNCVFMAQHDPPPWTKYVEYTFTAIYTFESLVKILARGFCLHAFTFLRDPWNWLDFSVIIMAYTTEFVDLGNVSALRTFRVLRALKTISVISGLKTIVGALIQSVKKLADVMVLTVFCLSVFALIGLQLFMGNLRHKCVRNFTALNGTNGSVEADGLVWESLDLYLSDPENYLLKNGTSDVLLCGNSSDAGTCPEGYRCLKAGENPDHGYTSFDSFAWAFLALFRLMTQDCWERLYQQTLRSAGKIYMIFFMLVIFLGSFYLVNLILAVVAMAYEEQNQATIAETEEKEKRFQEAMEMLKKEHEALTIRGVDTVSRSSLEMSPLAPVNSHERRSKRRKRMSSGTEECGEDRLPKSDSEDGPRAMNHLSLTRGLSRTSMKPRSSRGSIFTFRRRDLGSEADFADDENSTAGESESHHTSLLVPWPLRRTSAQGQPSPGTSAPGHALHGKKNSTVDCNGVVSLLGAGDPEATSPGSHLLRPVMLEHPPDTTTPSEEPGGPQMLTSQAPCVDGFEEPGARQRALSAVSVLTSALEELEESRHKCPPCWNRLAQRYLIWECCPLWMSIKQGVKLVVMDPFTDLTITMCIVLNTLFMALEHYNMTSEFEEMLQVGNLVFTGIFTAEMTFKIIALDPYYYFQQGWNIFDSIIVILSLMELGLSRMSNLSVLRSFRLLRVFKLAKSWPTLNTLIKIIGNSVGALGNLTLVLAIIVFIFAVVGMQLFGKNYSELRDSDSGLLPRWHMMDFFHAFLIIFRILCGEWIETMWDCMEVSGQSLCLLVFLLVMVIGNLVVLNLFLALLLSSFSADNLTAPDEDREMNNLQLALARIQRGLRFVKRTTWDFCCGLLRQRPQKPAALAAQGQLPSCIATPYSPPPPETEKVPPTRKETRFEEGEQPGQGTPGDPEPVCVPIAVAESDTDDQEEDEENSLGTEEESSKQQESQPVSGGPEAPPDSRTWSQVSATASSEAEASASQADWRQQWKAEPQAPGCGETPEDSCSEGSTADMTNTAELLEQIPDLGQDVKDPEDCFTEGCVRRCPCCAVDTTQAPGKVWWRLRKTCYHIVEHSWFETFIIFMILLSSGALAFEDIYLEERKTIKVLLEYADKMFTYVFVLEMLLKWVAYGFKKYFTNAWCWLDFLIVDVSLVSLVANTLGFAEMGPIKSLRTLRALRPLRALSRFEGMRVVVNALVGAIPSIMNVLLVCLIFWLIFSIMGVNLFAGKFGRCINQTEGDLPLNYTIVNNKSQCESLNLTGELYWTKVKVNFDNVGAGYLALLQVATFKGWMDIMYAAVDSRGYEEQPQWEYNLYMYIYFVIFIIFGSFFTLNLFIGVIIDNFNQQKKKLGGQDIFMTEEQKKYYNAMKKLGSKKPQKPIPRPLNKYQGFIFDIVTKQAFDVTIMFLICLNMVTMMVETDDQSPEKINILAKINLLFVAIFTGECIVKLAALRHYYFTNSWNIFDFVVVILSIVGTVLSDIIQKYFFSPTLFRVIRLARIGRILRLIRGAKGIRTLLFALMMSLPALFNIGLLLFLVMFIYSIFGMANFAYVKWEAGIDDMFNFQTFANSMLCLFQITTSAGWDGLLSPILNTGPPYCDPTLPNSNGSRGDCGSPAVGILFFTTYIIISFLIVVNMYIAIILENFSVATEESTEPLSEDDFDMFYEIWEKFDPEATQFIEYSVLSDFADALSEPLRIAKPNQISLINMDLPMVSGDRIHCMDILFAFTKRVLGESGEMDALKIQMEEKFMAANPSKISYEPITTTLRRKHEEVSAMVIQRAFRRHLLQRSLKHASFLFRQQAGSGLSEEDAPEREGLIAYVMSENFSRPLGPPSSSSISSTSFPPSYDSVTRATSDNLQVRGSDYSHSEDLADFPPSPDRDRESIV

Turning to `CC[C@H](C)[C@H](NC(=O)[C@@H](NC(=O)[C@H](CCCCN)NC(=O)[C@H](CCCNC(=N)N)NC(=O)[C@@H]1CSSC[C@@H]2NC(=O)[C@H](C)NC(=O)[C@H](CCCNC(=N)N)NC(=O)[C@H](CCCCN)NC(=O)[C@H](CO)NC(=O)[C@H](C)NC(=O)[C@@H]3CSSC[C@H](NC(=O)[C@H](CCCNC(=N)N)NC(=O)[C@H](CC(C)C)NC(=O)CNC(=O)[C@H](CCC(=O)O)NC(=O)[C@H](CSSC[C@H](NC(=O)[C@@H](N)Cc4ccc(O)cc4)C(=O)N[C@@H](CCC(N)=O)C(=O)N[C@@H](CCCCN)C(=O)N[C@@H](Cc4c[nH]c5ccccc45)C(=O)N[C@@H](CCSC)C(=O)N[C@@H](Cc4c[nH]c5ccccc45)C(=O)N[C@@H]([C@@H](C)O)C(=O)N3)NC2=O)C(=O)N[C@@H](CCCCN)C(=O)N[C@@H](CC(C)C)C(=O)N[C@@H](Cc2c[nH]c3ccccc23)C(=O)N1)[C@@H](C)CC)C(N)=O` [D10 Ala mutant], the concentration for half-maximal inhibition (IC50) at human NaV1.5 (setting [1]) is over 10000 nM; at human NaV1.7 (setting [2]) it was 345 nM; on human NaV1.4 (setting [3]), 917 nM.
Regarding `CC[C@H](C)[C@H](NC(=O)[C@@H](NC(=O)[C@H](CCCCN)NC(=O)[C@H](CCCNC(=N)N)NC(=O)[C@@H]1CSSC[C@@H]2NC(=O)[C@H](C)NC(=O)[C@H](CCCNC(=N)N)NC(=O)[C@H](CCCCN)NC(=O)[C@H](CO)NC(=O)[C@H](CC(=O)O)NC(=O)[C@@H]3CSSC[C@H](NC(=O)[C@H](CCCNC(=N)N)NC(=O)[C@H](CC(C)C)NC(=O)CNC(=O)[C@H](CCC(=O)O)NC(=O)[C@H](CSSC[C@H](NC(=O)[C@@H](N)Cc4ccc(O)cc4)C(=O)N[C@@H](CCC(N)=O)C(=O)N[C@@H](CCCCN)C(=O)N[C@@H](Cc4c[nH]c5ccccc45)C(=O)N[C@@H](CCSC)C(=O)N[C@@H](Cc4c[nH]c5ccccc45)C(=O)N[C@@H](CCC(=O)O)C(=O)N3)NC2=O)C(=O)N[C@@H](CCCCN)C(=O)N[C@@H](CC(C)C)C(=O)N[C@@H](Cc2c[nH]c3ccccc23)C(=O)N1)[C@@H](C)CC)C(N)=O` [T8 Glu mutant], the IC50 on human NaV1.5 (setting [4]) was over 10000 nM; at human NaV1.7 (setting [5]) it was 3860 nM; at human NaV1.4 (setting [6]), over 10000 nM.
`CC[C@H](C)[C@H](NC(=O)[C@@H](NC(=O)[C@H](CCCCN)NC(=O)[C@H](CCCNC(=N)N)NC(=O)[C@@H]1CSSC[C@@H]2NC(=O)[C@H](C)NC(=O)[C@H](CCCNC(=N)N)NC(=O)[C@H](CCCCN)NC(=O)[C@H](CO)NC(=O)[C@H](CC(=O)O)NC(=O)[C@@H]3CSSC[C@H](NC(=O)[C@H](CCC(=O)O)NC(=O)[C@H](CC(C)C)NC(=O)CNC(=O)[C@H](CCC(=O)O)NC(=O)[C@H](CSSC[C@H](NC(=O)[C@@H](N)Cc4ccc(O)cc4)C(=O)N[C@@H](CCC(N)=O)C(=O)N[C@@H](CCCCN)C(=O)N[C@@H](Cc4c[nH]c5ccccc45)C(=O)N[C@@H](CCSC)C(=O)N[C@@H](Cc4c[nH]c5ccccc45)C(=O)N[C@@H]([C@@H](C)O)C(=O)N3)NC2=O)C(=O)N[C@@H](CCCCN)C(=O)N[C@@H](CC(C)C)C(=O)N[C@@H](Cc2c[nH]c3ccccc23)C(=O)N1)[C@@H](C)CC)C(N)=O` [R20 Glu mutant]: the IC50 is over 5000 nM at human NaV1.5 (human, read-out: Glu mutant IWQ IC50 NaV1.5); 217 nM on human NaV1.7 (setting [5]); 1820 nM at human NaV1.4 (setting [6]).
`CC[C@H](C)[C@H](NC(=O)[C@@H](NC(=O)[C@H](CCCCN)NC(=O)[C@H](CCCNC(=N)N)NC(=O)[C@@H]1CSSC[C@@H]2NC(=O)[C@H](C)NC(=O)[C@H](CCCNC(=N)N)NC(=O)[C@H](CCCCN)NC(=O)[C@H](CO)NC(=O)[C@H](CC(=O)O)NC(=O)[C@@H]3CSSC[C@H](NC(=O)[C@H](CCCNC(=N)N)NC(=O)[C@H](CC(C)C)NC(=O)CNC(=O)[C@H](CCC(=O)O)NC(=O)[C@H](CSSC[C@H](NC(=O)[C@@H](N)Cc4ccc(O)cc4)C(=O)N[C@@H](CCC(N)=O)C(=O)N[C@@H](CCCCN)C(=O)N[C@@H](Cc4c[nH]c5ccccc45)C(=O)N[C@@H](CCSC)C(=O)N[C@@H](Cc4c[nH]c5ccccc45)C(=O)N[C@@H]([C@@H](C)O)C(=O)N3)NC2=O)C(=O)N[C@@H](CCC(=O)O)C(=O)N[C@@H](CC(C)C)C(=O)N[C@@H](Cc2c[nH]c3ccccc23)C(=O)N1)[C@@H](C)CC)C(N)=O` [K22 Glu mutant]: the half-maximal inhibitory concentration (IC50) is over 10000 nM at human NaV1.5 (setting [4]), 662 nM on human NaV1.7 (setting [5]) and over 10000 nM on human NaV1.4 (setting [6]).
Take `CC[C@H](C)[C@H](NC(=O)[C@@H](NC(=O)[C@H](CCCCN)NC(=O)[C@H](CCCNC(=N)N)NC(=O)[C@@H]1CSSC[C@@H]2NC(=O)[C@H](C)NC(=O)[C@H](CCCNC(=N)N)NC(=O)[C@H](CCCCN)NC(=O)[C@H](CO)NC(=O)[C@H](CC(=O)O)NC(=O)[C@@H]3CSSC[C@H](NC(=O)[C@H](CCCNC(=N)N)NC(=O)[C@H](CC(C)C)NC(=O)[C@H](CCC(=O)O)NC(=O)[C@H](CCC(=O)O)NC(=O)[C@H](CSSC[C@H](NC(=O)[C@@H](N)Cc4ccc(O)cc4)C(=O)N[C@@H](CCC(N)=O)C(=O)N[C@@H](CCCCN)C(=O)N[C@@H](Cc4c[nH]c5ccccc45)C(=O)N[C@@H](CCSC)C(=O)N[C@@H](Cc4c[nH]c5ccccc45)C(=O)N[C@@H]([C@@H](C)O)C(=O)N3)NC2=O)C(=O)N[C@@H](CCCCN)C(=O)N[C@@H](CC(C)C)C(=O)N[C@@H](Cc2c[nH]c3ccccc23)C(=O)N1)[C@@H](C)CC)C(N)=O` [G18 Glu mutant]: the IC50 was over 10000 nM at human NaV1.5 (setting [4]), 165 nM at human NaV1.7 (setting [5]) and 1220 nM on human NaV1.4 (setting [6]).
Take `CC[C@H](C)[C@H](NC(=O)[C@@H](NC(=O)[C@H](CCCCN)NC(=O)[C@H](CCCNC(=N)N)NC(=O)[C@@H]1CSSC[C@@H]2NC(=O)[C@H](C)NC(=O)[C@H](CCCNC(=N)N)NC(=O)[C@H](CCCCN)NC(=O)[C@H](CO)NC(=O)[C@H](CCC(=O)O)NC(=O)[C@@H]3CSSC[C@H](NC(=O)[C@H](CCCNC(=N)N)NC(=O)[C@H](CC(C)C)NC(=O)CNC(=O)[C@H](CCC(=O)O)NC(=O)[C@H](CSSC[C@H](NC(=O)[C@@H](N)Cc4ccc(O)cc4)C(=O)N[C@@H](CCC(N)=O)C(=O)N[C@@H](CCCCN)C(=O)N[C@@H](Cc4c[nH]c5ccccc45)C(=O)N[C@@H](CCSC)C(=O)N[C@@H](Cc4c[nH]c5ccccc45)C(=O)N[C@@H]([C@@H](C)O)C(=O)N3)NC2=O)C(=O)N[C@@H](CCCCN)C(=O)N[C@@H](CC(C)C)C(=O)N[C@@H](Cc2c[nH]c3ccccc23)C(=O)N1)[C@@H](C)CC)C(N)=O` [D10 Glu mutant]: the half-maximal inhibitory concentration (IC50) on human NaV1.5 (setting [4]) is over 10000 nM; on human NaV1.7 (setting [5]), 1300 nM; at human NaV1.4 (setting [6]), 8800 nM.
`CC[C@H](C)[C@H](NC(=O)[C@@H](NC(=O)[C@H](CCCCN)NC(=O)[C@H](CCCNC(=N)N)NC(=O)[C@@H]1CSSC[C@@H]2NC(=O)[C@H](C)NC(=O)[C@H](CCCNC(=N)N)NC(=O)[C@H](CCCCN)NC(=O)[C@H](CO)NC(=O)[C@H](CC(=O)O)NC(=O)[C@@H]3CSSC[C@H](NC(=O)[C@H](CCCNC(=N)N)NC(=O)[C@H](CC(C)C)NC(=O)CNC(=O)[C@H](CCC(=O)O)NC(=O)[C@H](CSSC[C@H](NC(=O)[C@@H](N)Cc4ccc(O)cc4)C(=O)N[C@@H](CCC(N)=O)C(=O)N[C@@H](CCCCN)C(=O)N[C@@H](C)C(=O)N[C@@H](CCSC)C(=O)N[C@@H](Cc4c[nH]c5ccccc45)C(=O)N[C@@H]([C@@H](C)O)C(=O)N3)NC2=O)C(=O)N[C@@H](CCCCN)C(=O)N[C@@H](CC(C)C)C(=O)N[C@@H](Cc2c[nH]c3ccccc23)C(=O)N1)[C@@H](C)CC)C(N)=O` [W5 Ala mutant]: the IC50 on human NaV1.5 (setting [1]) was over 10000 nM; on human NaV1.7 (setting [2]), 1550 nM; at human NaV1.4 (setting [3]), over 10000 nM.
For `CC[C@H](C)[C@H](NC(=O)[C@@H](NC(=O)[C@H](CCC(=O)O)NC(=O)[C@H](CCCNC(=N)N)NC(=O)[C@@H]1CSSC[C@@H]2NC(=O)[C@H](C)NC(=O)[C@H](CCCNC(=N)N)NC(=O)[C@H](CCCCN)NC(=O)[C@H](CO)NC(=O)[C@H](CC(=O)O)NC(=O)[C@@H]3CSSC[C@H](NC(=O)[C@H](CCCNC(=N)N)NC(=O)[C@H](CC(C)C)NC(=O)CNC(=O)[C@H](CCC(=O)O)NC(=O)[C@H](CSSC[C@H](NC(=O)[C@@H](N)Cc4ccc(O)cc4)C(=O)N[C@@H](CCC(N)=O)C(=O)N[C@@H](CCCCN)C(=O)N[C@@H](Cc4c[nH]c5ccccc45)C(=O)N[C@@H](CCSC)C(=O)N[C@@H](Cc4c[nH]c5ccccc45)C(=O)N[C@@H]([C@@H](C)O)C(=O)N3)NC2=O)C(=O)N[C@@H](CCCCN)C(=O)N[C@@H](CC(C)C)C(=O)N[C@@H](Cc2c[nH]c3ccccc23)C(=O)N1)[C@@H](C)CC)C(N)=O` [K27 Glu mutant], the IC50 on human NaV1.5 (setting [4]) is over 10000 nM; on human NaV1.7 (setting [5]), 748 nM; at human NaV1.4 (setting [6]) it was over 10000 nM.
`CC[C@H](C)[C@H](NC(=O)[C@@H](NC(=O)[C@H](CCCCN)NC(=O)[C@H](CCCNC(=N)N)NC(=O)[C@@H]1CSSC[C@@H]2NC(=O)[C@H](C)NC(=O)[C@H](CCCNC(=N)N)NC(=O)[C@H](CCCCN)NC(=O)[C@H](CO)NC(=O)[C@H](CC(=O)O)NC(=O)[C@@H]3CSSC[C@H](NC(=O)[C@H](CCCNC(=N)N)NC(=O)[C@H](CC(C)C)NC(=O)CNC(=O)[C@H](CCC(=O)O)NC(=O)[C@H](CSSC[C@H](NC(=O)[C@@H](N)Cc4ccc(O)cc4)C(=O)N[C@@H](CCC(N)=O)C(=O)N[C@@H](CCCCN)C(=O)N[C@@H](Cc4c[nH]c5ccccc45)C(=O)N[C@@H](CCSC)C(=O)N[C@@H](Cc4c[nH]c5ccccc45)C(=O)N[C@@H]([C@@H](C)O)C(=O)N3)NC2=O)C(=O)N[C@@H](CCCCN)C(=O)N[C@@H](CC(C)C)C(=O)N[C@@H](CCC(=O)O)C(=O)N1)[C@@H](C)CC)C(N)=O` [W24 Glu mutant]: the IC50 on human NaV1.5 (setting [4]) was over 10000 nM; on human NaV1.7 (setting [5]) it was 9900 nM; at human NaV1.4 (setting [6]) it was over 10000 nM.
